Patent US8445510B2, “Fused bicyclic kinase inhibitors” (OSI Pharmaceuticals, LLC, priority 2011, dated 2013)

Target: c-MET (Homo sapiens, UniProt P08581)
Assay: MET cell mechanistic assay (MKN45), phosphorylated MET ELISA
Assay type: cell-based
Details: MKN45 cell line; inhibition of phosphorylated MET; 4 hours incubation; at least duplicate experiments; read-out: MET mech IC50
Procedure: The cellular activity of the compounds of the present invention against c-MET may be determined by the following procedure. MKN45 cells were plated in Falcon 3072 96-well plates in growth media (RPMI, 10% FBS, 1% L-glutamine) at a density of 5000 cells/well and incubated at 37° C., 5% CO2 overnight. The following day, one-tenth volume of a 10× concentration of compounds was added to the wells in a 6-point dilution series. The dilutions series was composed of an initial 1:5 dilution in DMSO, followed by a 1:10 dilution in growth media, for a final DMSO concentration on cells of 0.5%. Control wells were treated with 0.5% DMSO. The typical range of dilution was 10 μM to 3 nM. Once compound was added to the cells, plates were incubated for 4 hours at 37° C., 5% CO2. Plates were then washed in PBS, and lysed in triton-based lysis buffer. Lysates were transferred to a precoated capture plate made by Biosource (Cat # KHO0281). The phosphorylated MET levels were measured by incubating with a rabbit polyclonal antibody against phosphorylated MET ([pYpYpY1230/1234/1235]) followed by an anti-rabbit antibody conjugated to HRP. Signal was measured on a Wallac Victor plate reader at 450 nm. The DMSO signal of the control wells was defined as 100% and the percent of inhibition of phosphorylated MET was expressed as percent of control. IC50 values were determined from the percent of control data using a standard four-parameter model.
The IC50 values of exemplary compounds of the present invention determined in a MET cell mechanistic assay using the MKN45 cell line according to the procedures described herein in at least duplicate experiments are abbreviated as follows and are shown in Table 1: A, IC50≦0.05 μM; B, 0.05 μM<IC50≦0.2 μM; C, 0.2 μM<IC50≦1 μM; D, IC50>1 μM; ND, not determined. The Example # of Table 1 corresponds to the compound example number as illustrated in the Examples section.
Treatment of this cell line with a selective c-MET inhibitor led to induction of apoptosis and inhibition of proliferation, whereas non-MET-amplified cell lines were not affected [Smolen et al., Proc. Natl. Acad. Sci. USA, 103(7):2316-2321 (2006)]. This cell line is thus “driven” by c-MET, and antiproliferative effects correlate very well with the inhibition of c-MET phosphorylation so that the cell proliferation IC50, values can be used as surrogate for the c-MET cell mechanistic IC50, values. Under the assay conditions described herein, the IC50 values correlate nearly 1:1.

Chain of c-MET (P08581 25-1390): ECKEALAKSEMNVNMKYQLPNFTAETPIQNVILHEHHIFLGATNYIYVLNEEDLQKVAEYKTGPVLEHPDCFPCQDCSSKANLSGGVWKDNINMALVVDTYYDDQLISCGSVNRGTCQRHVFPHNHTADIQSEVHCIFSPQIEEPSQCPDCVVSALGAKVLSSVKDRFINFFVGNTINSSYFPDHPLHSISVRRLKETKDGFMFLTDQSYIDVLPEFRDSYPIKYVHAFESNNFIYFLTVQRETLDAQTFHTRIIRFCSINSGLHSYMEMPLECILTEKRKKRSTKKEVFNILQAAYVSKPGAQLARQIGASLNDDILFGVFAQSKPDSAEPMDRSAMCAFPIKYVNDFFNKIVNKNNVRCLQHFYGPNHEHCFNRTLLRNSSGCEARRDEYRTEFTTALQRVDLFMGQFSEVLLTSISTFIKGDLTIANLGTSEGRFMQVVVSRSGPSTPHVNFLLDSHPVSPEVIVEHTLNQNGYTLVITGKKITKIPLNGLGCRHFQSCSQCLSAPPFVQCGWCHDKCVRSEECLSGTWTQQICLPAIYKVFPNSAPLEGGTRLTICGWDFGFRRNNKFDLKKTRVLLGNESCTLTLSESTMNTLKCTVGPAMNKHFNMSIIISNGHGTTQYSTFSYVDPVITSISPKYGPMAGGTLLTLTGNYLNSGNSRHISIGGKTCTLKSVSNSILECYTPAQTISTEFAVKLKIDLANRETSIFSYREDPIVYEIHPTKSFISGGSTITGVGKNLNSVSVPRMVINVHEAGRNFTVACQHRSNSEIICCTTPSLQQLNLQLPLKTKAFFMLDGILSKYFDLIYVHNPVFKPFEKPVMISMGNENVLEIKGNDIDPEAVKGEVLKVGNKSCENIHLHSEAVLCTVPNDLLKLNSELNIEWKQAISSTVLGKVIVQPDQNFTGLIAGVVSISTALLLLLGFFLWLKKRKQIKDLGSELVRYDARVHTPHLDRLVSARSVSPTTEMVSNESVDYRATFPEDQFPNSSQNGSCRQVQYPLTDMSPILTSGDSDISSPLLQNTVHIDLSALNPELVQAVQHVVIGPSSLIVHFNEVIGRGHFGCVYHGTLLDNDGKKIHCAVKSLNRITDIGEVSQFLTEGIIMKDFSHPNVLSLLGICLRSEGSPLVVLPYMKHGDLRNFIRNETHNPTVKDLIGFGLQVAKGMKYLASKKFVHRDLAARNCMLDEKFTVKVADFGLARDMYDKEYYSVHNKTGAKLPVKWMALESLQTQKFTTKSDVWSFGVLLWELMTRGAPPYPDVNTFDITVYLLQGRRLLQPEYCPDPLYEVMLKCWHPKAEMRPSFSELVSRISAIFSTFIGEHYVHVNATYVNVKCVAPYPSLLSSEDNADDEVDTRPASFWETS

| Compound | IC50 |
| --- | --- |
| COc1ccc(F)c(Cl)c1[C@@H](C)c1c[nH]c2ncc(-c3cnn([C@H]4CC[C@H](O)CC4)c3C)cc12 [Example 27, trans-4-(4-{3-[(1S)-1-(2-Chloro-3-fluoro-6-methoxyphenyl)ethyl]-1H-pyrrolo[2,3-b]pyridin-5-yl}-5-methyl-1H-pyrazol-1-yl)cyclohexanol] | ≤ 50 nM |
| Cc1c(-c2cnc3[nH]cc([C@H](C)c4c(OC(F)F)ccc(F)c4Cl)c3c2)cnn1[C@H]1CC[C@H](O)CC1 [Example 74, trans-4-[4-(3-{(1S)-1-[2-Chloro-6-(difluoromethoxy)-3-fluorophenyl]ethyl}-1H-pyrrolo[2,3-b]pyridin-5-yl)-5-methyl-1H-pyrazol-1-yl]cyclohexanol] | ≤ 50 nM |
| Cc1c(-c2cnc3[nH]cc([C@H](C)c4c(OC(F)F)ccc(F)c4Cl)c3c2)cnn1C1CCNCC1 [Example 96, 3-{(1S)-1-[2-Chloro-6-(difluoromethoxy)-3-fluorophenyl]ethyl}-5-[5-methyl-1-(piperidin-4-yl)-1H-pyrazol-4-yl]-1H-pyrrolo[2,3-b]pyridine] | ≤ 50 nM |
| CC(=O)N1CCC(n2ncc(-c3cnc4[nH]cc([C@H](C)c5c(OC(F)F)ccc(F)c5Cl)c4c3)c2C)CC1 [Example 97, 1-{4-[4-(3-{(1S)-1-[2-Chloro-6-(difluoromethoxy)-3-fluorophenyl]ethyl}-1H-pyrrolo[2,3-b]pyridin-5-yl)-5-methyl-1H-pyrazol-1-yl]piperidin-1-yl}ethanone] | ≤ 50 nM |
| COc1ccc(F)c(Cl)c1[C@@H](C)c1c[nH]c2ncc(-c3cn([C@H]4CC[C@H](O)CC4)nc3OC)cc12 [Example 99, trans-4-(4-{3-[(1S)-1-(2-chloro-3-fluoro-6-methoxyphenyl)ethyl]-1H-pyrrolo[2,3-b]pyridin-5-yl}-3-methoxy-1H-pyrazol-1-yl)cyclohexanol] | ≤ 50 nM |
| COc1nn([C@H]2CC[C@H](O)CC2)cc1-c1cnc2[nH]cc([C@H](C)c3c(OC(F)F)ccc(F)c3Cl)c2c1 [Example 100, trans-4-[4-(3-{(1S)-1-[2-chloro-6-(difluoromethoxy)-3-fluorophenyl]ethyl}-1H-pyrrolo[2,3-b]pyridin-5-yl)-3-methoxy-1H-pyrazol-1-yl]cyclohexanol] | ≤ 50 nM |
| CCOc1ccc(F)c(Cl)c1[C@@H](C)c1c[nH]c2ncc(-c3cnn([C@H]4CC[C@H](O)CC4)c3C)cc12 [Example 103, trans-4-(4-{3-[(1S)-1-(2-Chloro-6-ethoxy-3-fluorophenyl)ethyl]-1H-pyrrolo[2,3-b]pyridin-5-yl}-5-methyl-1H-pyrazol-1-yl)cyclohexanol] | ≤ 50 nM |
| COc1ccc(F)c(Cl)c1[C@@H](CF)c1c[nH]c2ncc(-c3cnn([C@H]4CC[C@H](O)CC4)c3C)cc12 [Example 121, trans-4-(4-{3-[(1S)-1-(2-Chloro-3-fluoro-6-methoxyphenyl)-2-fluoroethyl]-1H-pyrrolo[2,3-b]pyridin-5-yl}-5-methyl-1H-pyrazol-1-yl)cyclohexanol] | ≤ 50 nM |
| Cc1c(-c2cnc3[nH]cc([C@@H](CF)c4c(OC(F)F)ccc(F)c4Cl)c3c2)cnn1[C@H]1CC[C@H](O)CC1 [Example 123, trans-4-[4-(3-{(1R)-1-[2-chloro-6-(difluoromethoxy)-3-fluorophenyl]-2-fluoroethyl}-1H-pyrrolo[2,3-b]pyridin-5-yl)-5-methyl-1H-pyrazol-1-yl]cyclohexanol] | 200 to 1000 nM |
| Cc1c(-c2cnc3[nH]cc([C@H](CF)c4c(OC(F)F)ccc(F)c4Cl)c3c2)cnn1[C@H]1CC[C@H](O)CC1 [Example 124, trans-4-[4-(3-{(1S)-1-[2-chloro-6-(difluoromethoxy)-3-fluorophenyl]-2-fluoroethyl}-1H-pyrrolo[2,3-b]pyridin-5-yl)-5-methyl-1H-pyrazol-1-yl]cyclohexanol] | ≤ 50 nM |
| C[C@H](c1c(OC(F)F)ccc(F)c1Cl)c1c[nH]c2ncc(-c3cnc(N4CCC(O)CC4)n3C)cc12 [Example 125, 1-[5-(3-{(1S)-1-[2-Chloro-6-(difluoromethoxy)-3-fluorophenyl]ethyl}-1H-pyrrolo[2,3-b]pyridin-5-yl)-1-methyl-1H-imidazol-2-yl]piperidin-4-ol] | ≤ 50 nM |
| C[C@H](c1c(OC(F)F)ccc(F)c1Cl)c1c[nH]c2ncc(-c3cnc([C@H]4CC[C@H](O)CC4)n3C)cc12 [Example 126, trans-4-[5-(3-{(1S)-1-[2-Chloro-6-(difluoromethoxy)-3-fluorophenyl]ethyl}-1H-pyrrolo[2,3-b]pyridin-5-yl)-1-methyl-1H-imidazol-2-yl]cyclohexanol] | ≤ 50 nM |
